{
  "source": "patent US9139574B2",
  "about": "“Tumor targeted drug combretastatin A4 derivative” (Nanjing Sanhome Pharmaceutical Co., Ltd., priority 2011, dated 2015)",
  "data": [
    {"units": {"melting point": "°C"}, "values": [
      {"smiles": "COc1cc(OC)cc(-c2nc[nH]c2-c2ccc(OC)c(O)c2)c1.O=P([O-])([O-])O.[Na+].[Na+]", "melting point": "169.7 to 172.1"},
      {"smiles": "COc1ccc(-c2ocnc2-c2cc(OC)c(N)c(OC)c2)cc1F", "note": "[CN01, 4-(3,5-dimethoxy-4-aminophenyl)-5-(3-fluoro-4-methoxyphenyl)oxazole]", "melting point": "100.8 to 102.6"},
      {"smiles": "COc1ccc(-c2ocnc2-c2cc(OC)c(Br)c(OC)c2)cc1O", "note": "[CN02, 4-(3,5-dimethoxy-4-bromophenyl)-5-(3-hydroxy-4-methoxyphenyl)oxazole]", "melting point": "184.7 to 187"},
      {"smiles": "COc1ccc(-c2ocnc2-c2cc(OC)c(O)c(OC)c2)cc1F", "note": "[CN03, 4-(3,5-dimethoxy-4-hydroxyphenyl)-5-(3-fluoro-4-methoxyphenyl)oxazole]", "melting point": "161.3 to 162.8"},
      {"smiles": "COc1ccc(-c2ocnc2-c2cc(OC)c(Br)c(OC)c2)cc1N", "note": "[CN04, 4-(3,5-dimethoxy-4-bromophenyl)-5-(3-amino-4-methoxyphenyl)oxazole]", "melting point": "179.8 to 183.9"},
      {"smiles": "COc1ccc(-c2ocnc2-c2cc(OC)c(O)c(OC)c2)cc1N", "note": "[CN05, 4-(3,5-dimethoxy-4-hydroxyphenyl)-5-(3-amino-4-methoxyphenyl)oxazole]", "melting point": "101.2 to 102"},
      {"smiles": "COc1ccc(-c2ocnc2-c2cc(OC)c(O)c(OC)c2)cc1O", "note": "[CN06, 4-(3,5-dimethoxy-4-hydroxyphenyl)-5-(3-hydroxy-4-methoxyphenyl)oxazole]", "melting point": "144.3 to 145.5"},
      {"smiles": "COc1ccc(-c2ocnc2-c2cc(OC)c([N+](=O)[O-])c(OC)c2)cc1O", "note": "[CN07, 4-(3,5-dimethoxy-4-nitrophenyl)-5-(3-hydroxy-4-methoxyphenyl)oxazole]", "melting point": "186.2 to 188.4"},
      {"smiles": "COc1ccc(-c2ocnc2-c2cc(OC)c(N)c(OC)c2)cc1O", "note": "[CN08, 4-(3,5-dimethoxy-4-aminophenyl)-5-(3-hydroxy-4-methoxyphenyl)oxazole]", "melting point": "126 to 129.6"},
      {"smiles": "COc1ccc(-c2[nH]cnc2-c2cc(OC)c(N)c(OC)c2)cc1F", "note": "[CN10, 4-(3,5-dimethoxy-4-aminophenyl)-5-(3-fluoro-4-methoxyphenyl) imidazole]", "melting point": "100.8 to 102.6"},
      {"smiles": "COc1ccc(-c2[nH]cnc2-c2cc(OC)c(Br)c(OC)c2)cc1O", "note": "[CN11, 4-(3,5-dimethoxy-4-bromophenyl)-5-(3-hydroxy-4-methoxyphenyl) imidazole]", "melting point": "184.7 to 187"},
      {"smiles": "COc1ccc(-c2[nH]cnc2-c2cc(OC)c(O)c(OC)c2)cc1F", "note": "[CN12, 4-(3,5-dimethoxy-4-hydroxyphenyl)-5-(3-fluoro-4-methoxyphenyl) imidazole]", "melting point": "124.7 to 127"},
      {"smiles": "COc1ccc(-c2[nH]cnc2-c2cc(OC)c(Br)c(OC)c2)cc1N", "note": "[CN13, 4-(3,5-dimethoxy-4-bromophenyl)-5-(3-amino-4-methoxyphenyl)imidazole]", "melting point": "159.7 to 162"},
      {"smiles": "COc1ccc(-c2[nH]cnc2-c2cc(OC)c(O)c(OC)c2)cc1N", "note": "[CN14, 4-(3,5-dimethoxy-4-hydroxyphenyl)-5-(3-amino-4-methoxyphenyl)imidazole]", "melting point": "148.5 to 149.9"},
      {"smiles": "COc1ccc(-c2[nH]cnc2-c2cc(OC)c(O)c(OC)c2)cc1O", "note": "[CN15, 4-(3,5-dimethoxy-4-hydroxyphenyl)-5-(3-hydroxy-4-methoxyphenyl)imidazole]", "melting point": "171.5 to 173"},
      {"smiles": "COc1ccc(-c2[nH]cnc2-c2cc(OC)c([N+](=O)[O-])c(OC)c2)cc1O", "note": "[CN16, 4-(3,5-dimethoxy-4-nitrophenyl)-5-(3-hydroxy-4-methoxyphenyl)imidazole]", "melting point": "147.7 to 149"},
      {"smiles": "COc1ccc(-c2[nH]cnc2-c2cc(OC)c(N)c(OC)c2)cc1O", "note": "[CN17, 4-(3,5-dimethoxy-4-aminophenyl)-5-(3-hydroxy-4-methoxyphenyl) imidazole]", "melting point": "141.8 to 143.7"},
      {"smiles": "COc1ccc(-c2[nH]cnc2-c2cc(OC)c(N)c(OC)c2)cc1N", "note": "[CN19, 4-(3,5-dimethoxy-4-aminophenyl)-5-(3-amino-4-methoxyphenyl) imidazole]", "melting point": "139.7 to 142.1"},
      {"smiles": "COc1ccc(-c2ocnc2-c2cc(OC)c(F)c(OC)c2)cc1N", "note": "[CN20, 4-(3,5-dimethoxy-4-fluorophenyl)-5-(3-amino-4-methoxyphenyl)oxazole]", "melting point": "139.7 to 142.1"},
      {"smiles": "COc1ccc(-c2ocnc2-c2cc(OC)c(Cl)c(OC)c2)cc1N", "note": "[CN21, 4-(3,5-dimethoxy-4-chlorophenyl)-5-(3-amino-4-methoxyphenyl)oxazole]", "melting point": "146.2 to 148.1"},
      {"smiles": "COc1ccc(-c2ocnc2-c2cc(OC)c(OC(F)(F)F)c(OC)c2)cc1N", "note": "[CN23, 4-(3,5-dimethoxy-4-trifluoromethoxyphenyl)-5-(3-amino-4-methoxyphenyl)oxazole]", "melting point": "167.9 to 170.2"},
      {"smiles": "COc1cc(OC)cc(-c2ncn(-c3cc(OC)c(OC)c(OC)c3)c2-c2ccc(OC)c(F)c2)c1", "note": "[Compound C091, 5-(3-fluoro-4-methoxyphenyl)-4-(3,5-dimethoxyphenyl)-1-(3,4,5-trimethoxyphenyl)imidazole]", "melting point": "157 to 158.4"},
      {"smiles": "COc1cc(-c2ncn(-c3ccc(C(F)(F)F)cc3)c2-c2ccc(N(C)C)cc2)cc(OC)c1OC", "note": "[Compound C092, 5-(4-dimethylaminophenyl)-4-(3,4,5-trimethoxyphenyl)-1-(4-trifluoromethylphenyl)imidazole]", "melting point": "215 to 217"},
      {"smiles": "COc1ccc(-c2ncn(-c3cc(OC)c(OC)c(OC)c3)c2-c2cc(OC)c(OC)c(OC)c2)cc1OC", "note": "[Compound C104, 5-(3,4,5-trimethoxyphenyl)-4-(3,4-dimethoxyphenyl)-1-(3,4,5-trimethoxyphenyl)imidazole]", "melting point": "159.5 to 161"},
      {"smiles": "COc1cc(-c2ncn(-c3cc(OC)c(OC)c(OC)c3)c2-c2cc(OC)c(OC)c(OC)c2)cc(OC)c1OC", "note": "[Compound C107, 5-(3,4,5-trimethoxyphenyl)-4-(3,4,5-trimethoxyphenyl)-1-(3,4,5-trimethoxyphenyl)imidazole]", "melting point": "168.8 to 170.9"},
      {"smiles": "COc1cc(OC)cc(-c2ncoc2-c2ccc(NC(C)=O)cc2)c1", "note": "[Compound C109, 5-(4-acetamidophenyl)-4-(3,5-dimethoxyphenyl)oxazole]", "melting point": "140.1 to 143.2"},
      {"smiles": "COc1cc(OC)cc(-c2ncoc2-c2ccc(N)cc2)c1", "note": "[Compound C112, 4-(3,5-dimethoxyphenyl)-5-(4-aminophenyl)oxazole]", "melting point": "142 to 146"},
      {"smiles": "COc1cc(OC)cc(-c2ncoc2-c2ccc(N(C)C)c(N)c2)c1", "note": "[Compound C113, 4-(3,5-dimethoxyphenyl)-5-(3-amino-4-dimethylaminophenyl)oxazole]", "melting point": "111.7 to 113.5"},
      {"smiles": "COc1cc(OC)cc(-c2ncoc2-c2cc(N)c(OC)cc2N)c1", "note": "[Compound C119, 4-(3,5-dimethoxyphenyl)-5-(2,5-diamino-4-methoxyphenyl)oxazole]", "melting point": "149.9 to 151.6"},
      {"smiles": "COc1cc(OC)cc(-c2ncoc2-c2ccc3c(c2)NCCO3)c1", "note": "[Compound C255, 4-(3,5-dimethoxyphenyl)-5-(6-benzomorpholinyl)oxazole]", "melting point": "175 to 178"}
    ]}
  ]
}
